Results from publication PMC9848300, “Discovery of novel enasidenib analogues targeting inhibition of mutant isocitrate dehydrogenase 2 as antileukaemic agents” (Journal of Enzyme Inhibition and Medicinal Chemistry, 2023).

What was measured:
Type in all cases: cell-based
[1] = system: K-562; assay: NCI 60 antitumor screening (single dose / five doses); settings: Homo sapiens, K562, read-out: Growth inhibition percentage (GI %)
[2] = system: SR; assay: as above; settings: Homo sapiens, SR, read-out: Growth inhibition percentage (GI %)
[3] = system: EKVX; assay: as above; settings: Homo sapiens, EKVX, read-out: Growth inhibition percentage (GI %)
[4] = system: HCC-2998; assay: NCI 60 antitumor screening (single dose); settings: Homo sapiens; HCC-2998 (colon cancer), single dose 10 μM; read-out: Growth inhibition percentage (GI %)
Summary of the method: (§1)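 NCI-60 one-dose screen. Dose: 10 μM. Lines: 60 human tumour lines, nine tissue types. Output: GI% = 100 − G%.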

[5] = system: HOP-62; assay: NCI 60 antitumor screening (single dose); settings: Homo sapiens; HOP-62 (non-small cell lung cancer), single dose 10 μM; read-out: Growth inhibition percentage (GI %)
Summary of the method: as §1

[6] = system: HS 578T; assay: NCI 60 antitumor screening (single dose); settings: Homo sapiens; HS 578T (breast cancer), single dose 10 μM; read-out: Growth inhibition percentage (GI %)
Summary of the method: (§2)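 Values are GI% (100 − G%) from the NCI 60-line single-dose screen, compound at 10 μM.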

[7] = system: KM 12; assay: NCI 60 antitumor screening (single dose); settings: Homo sapiens, KM12; KM 12 (colon cancer), single dose 10 μM; read-out: Growth inhibition percentage (GI %)
Summary of the method: as §2

[8] = system: NCI-H226; assay: NCI 60 antitumor screening (single dose); settings: Homo sapiens; NCI-H226 (non-small cell lung cancer), single dose 10 μM; read-out: Growth inhibition percentage (GI %)
Summary of the method: as §2

[9] = system: NCI-H460; assay: NCI 60 antitumor screening (single dose); settings: Homo sapiens; NCI-H460 (non-small cell lung cancer), single dose 10 μM; read-out: Growth inhibition percentage (GI %)
Summary of the method: as §1

[10] = system: OVCAR-3; assay: NCI 60 antitumor screening (single dose); settings: Homo sapiens; OVCAR-3 (ovarian cancer), single dose 10 μM; read-out: Growth inhibition percentage (GI %)
Summary of the method: as §2

[11] = system: OVCAR-4; assay: NCI 60 antitumor screening (single dose); settings: Homo sapiens; OVCAR-4 (ovarian cancer), single dose 10 μM; read-out: Growth inhibition percentage (GI %)
Summary of the method: as §2

[12] = system: OVCAR-5; assay: NCI 60 antitumor screening (single dose); settings: Homo sapiens; OVCAR-5 (ovarian cancer), single dose 10 μM; read-out: Growth inhibition percentage (GI %)
Summary of the method: as §1

[13] = system: OVCAR-8; assay: NCI 60 antitumor screening (single dose); settings: Homo sapiens; OVCAR-8 (ovarian cancer), single dose 10 μM; read-out: Growth inhibition percentage (GI %)
Summary of the method: as §2

[14] = system: PC-3; assay: NCI 60 antitumor screening (single dose); settings: Homo sapiens; PC-3 (prostate cancer), single dose 10 μM; read-out: Growth inhibition percentage (GI %)
Summary of the method: as §2

[15] = system: SK-OV-3; assay: NCI 60 antitumor screening (single dose); settings: Homo sapiens; SK-OV-3 (ovarian cancer), single dose 10 μM; read-out: Growth inhibition percentage (GI %)
Summary of the method: as §1

[16] = system: SNB-19; assay: NCI 60 antitumor screening (single dose); settings: Homo sapiens; SNB-19 (CNS cancer), single dose 10 μM; read-out: Growth inhibition percentage (GI %)
Summary of the method: as §2

[17] = system: TK-10; assay: NCI 60 antitumor screening (single dose); settings: Homo sapiens; TK-10 (renal cancer), single dose 10 μM; read-out: Growth inhibition percentage (GI %)
Summary of the method: as §2

[18] = system: U251; assay: NCI 60 antitumor screening (single dose); settings: Homo sapiens, U-251; U251 (CNS cancer), single dose 10 μM; read-out: Growth inhibition percentage (GI %)
Summary of the method: as §1

[19] = system: COLO 205; assay: NCI 60 antitumor screening (single dose / five doses); settings: Homo sapiens, COLO 205, read-out: Growth inhibition percentage (GI %)
[20] = system: HCT-116; assay: as above; settings: Homo sapiens, HCT-116, read-out: Growth inhibition percentage (GI %)
[21] = system: SF-295; assay: as above; settings: Homo sapiens, SF-295, read-out: Growth inhibition percentage (GI %)
[22] = system: LOX IMVI; assay: as above; settings: Homo sapiens, LOX IMVI, read-out: Growth inhibition percentage (GI %)
[23] = system: SK-MEL-2; assay: as above; settings: Homo sapiens, SK-MEL-2, read-out: Growth inhibition percentage (GI %)
[24] = system: UACC-257; assay: as above; settings: Homo sapiens, UACC-257, read-out: Growth inhibition percentage (GI %)
[25] = system: IGROV1; assay: as above; settings: Homo sapiens, IGROV-1, read-out: Growth inhibition percentage (GI %)
[26] = system: ACHN; assay: as above; settings: Homo sapiens, ACHN, read-out: Growth inhibition percentage (GI %)
[27] = system: SN 12C; assay: as above; settings: Homo sapiens, SN12C, read-out: Growth inhibition percentage (GI %)
[28] = system: T-47D; assay: as above; settings: Homo sapiens, T47D, read-out: Growth inhibition percentage (GI %)

O=[N+]([O-])c1cccc(/C=N/Nc2nc(N/N=C/c3cccc([N+](=O)[O-])c3)nc(N3CCCCC3)n2)c1 [compound 7f, 2,4-Bis[(E)-2-[(3-Nitrophenyl)methylidene]hydrazin-1-yl]-6-(piperidin-1-yl)-1,3,5-triazine]
inhibition at 10 µM [1]: 67.6%
inhibition at 10 µM [2]: 53.3%
inhibition at 10 µM [3]: 34.9%
inhibition at 10 µM [4]: 5.6%
inhibition at 10 µM [5]: 41.5%
inhibition at 10 µM [6]: 20.8%
inhibition at 10 µM [7]: 35.2%
inhibition at 10 µM [8]: 42.6%
inhibition at 10 µM [9]: 31.3%
inhibition at 10 µM [10]: 44.4%
inhibition at 10 µM [11]: 32.3%
inhibition at 10 µM [12]: -13%
inhibition at 10 µM [13]: 48.9%
inhibition at 10 µM [14]: 51.4%
inhibition at 10 µM [15]: -14.3%
inhibition at 10 µM [16]: 11.5%
inhibition at 10 µM [17]: -9.28%
inhibition at 10 µM [18]: 28.6%
inhibition at 10 µM [19]: 24.1%
inhibition at 10 µM [20]: 47%
inhibition at 10 µM [21]: 28.3%
inhibition at 10 µM [22]: 49.1%
inhibition at 10 µM [23]: 36%
inhibition at 10 µM [24]: 4.25%
inhibition at 10 µM [25]: 51.3%
inhibition at 10 µM [26]: 37.8%
inhibition at 10 µM [27]: 31.9%
inhibition at 10 µM [28]: 47.5%
